# Experimental data published in patent publication US20250161273A1, “PHARMACEUTICAL COMPOSITION COMPRISING DIPHENYLDIAZOLE DERIVATIVES AND METHODS OF USE” (MODAG GMBH, priority 2022, published 2025).
# Where two headings read alike, the source gives them in different places.
# Tests used:
# [1] = phase 1 first-in-human trial, safety and tolerability; assay type: in vivo
# Method: Anle138b was studied in a single-centre, double-blind, randomised, placebo-controlled single ascending dose (SAD) and multiple ascending dose (MAD) study in healthy subjects. Eligible participants were randomly assigned (1:1 for sentinel subjects and 1:5 for main group) to placebo or anle138b (dose ranging from 50 mg to 300 mg per day), respectively. In addition, the effect of food on the pharmacokinetics (PK) of anle138b in healthy subjects was examined at doses of 150 mg per day (FES, food effect study). Participants were randomized to treatment sequence (fed→fasted) or (fasted→fed). Treatment for the SAD, MAD and FES arms of the study was administered orally in hard gelatin capsules containing either 10 mg or 30 mg of anle138b with excipient (i.e., lauroyl polyoxyl-32 glycerides) or excipient only. The primary endpoints were safety and tolerability, the secondary endpoint was pharmacokinetics. Data from all randomized individuals were evaluated. [Clinicaltrials.gov-identifier: NCT04208152. EudraCT-number: 2019-004218-33] […]
# In SAD, subjects received a single dose of anle138b or placebo after fasting from all food and drink (except water) for a minimum of 8 h prior to dosing. […] The following data were analyzed: Adverse events, vital signs, safety laboratory, ECG, physical examinations, plasma concentrations of anle138b with interim PK parameter estimations (Tmax, Cmax, AUC0-24, AUC0-tau, AUC0-last and T½, where applicable). […]
# Outcome measures: The primary objective was to assess the safety and tolerability of single (SAD) and multiple (MAD) ascending doses of anle138b to healthy subjects in the fasted state and to assess the safety and tolerability of single doses of anle138b in both the fasted and fed state (FES). To this end, adverse events (AEs), clinical laboratory tests, vital signs, electrocardiograms (ECGs), QT interval corrected for heart rate using Fridericia's formula (QTcF), and physical examination findings were recorded. […]
# [2] = phase 1 first-in-human trial, food effect study (FES) PK; assay type: in vivo; settings: for AUC(0-t) / Cmax / half-life / Tmax: 150 mg; for half-life: read-out: T1/2 (geometric mean) (converted)
# Method: Anle138b was studied in a single-centre, double-blind, randomised, placebo-controlled single ascending dose (SAD) and multiple ascending dose (MAD) study in healthy subjects. Eligible participants were randomly assigned (1:1 for sentinel subjects and 1:5 for main group) to placebo or anle138b (dose ranging from 50 mg to 300 mg per day), respectively. In addition, the effect of food on the pharmacokinetics (PK) of anle138b in healthy subjects was examined at doses of 150 mg per day (FES, food effect study). Participants were randomized to treatment sequence (fed→fasted) or (fasted→fed). Treatment for the SAD, MAD and FES arms of the study was administered orally in hard gelatin capsules containing either 10 mg or 30 mg of anle138b with excipient (i.e., lauroyl polyoxyl-32 glycerides) or excipient only. The primary endpoints were safety and tolerability, the secondary endpoint was pharmacokinetics. Data from all randomized individuals were evaluated. [Clinicaltrials.gov-identifier: NCT04208152. EudraCT-number: 2019-004218-33]
# This dose was administered either i) after a standard FDA-approved high-fat breakfast or ii) in the fasted state, i.e., fasted from all food and drink (except water) for a minimum of 8 h prior to dosing. In total, one cohort of 12 subjects was randomised in a 1:1 ratio to 2 treatment sequences (fed→fasted) or (fasted→fed). A minimum washout of at least 5 half-lives of anle138b between each dose was assured.
# Secondary outcome measures were the oral PK of single (SAD) and multiple (MAD) ascending doses of anle138b in the fasted state as well as the effect of co-administration with food on the PK of anle138b. To this end PK blood samples were taken at day 1 (and for MAD day 7) pre-dose and at 0.5, 1, 1.5, 2, 3, 4, 6, 8, 10, 12, 16 and 20 h post-administration, at days 2 to 6 pre-dose only (MAD) and 24, 30, 36 and 48 h post final dose. Analysis of anle138b in plasma was done at Aptuit. Time point of last quantifiable data was seen to increase with an increase in dose as follows: SAD: from the 50 mg dose (subjects ranged between 8-24 h) to the 300 mg dose (subjects ranged between 36-48 h). MAD: from the 100 mg dose (subjects ranged between 8-36 h) to the 300 mg dose (subjects ranged between 20-48 h). In FES, subjects ranged between 24-48 h.
# where μ=[…] is the intercept and β is the slope from the linear model. Using this model it is possible to estimate β (measure of dose proportionality) and obtain 90% confidence interval (CI) for β (Gough, 1995; Smith, 2000). The estimate of β together with its 90% CI (βI, βu) was used to quantify the degree of non-proportionality. In MAD, formal statistical analysis was performed on the PK parameters AUC0-tau and Cmax to assess dose accumulation. Log-transformed AUC0-tau and Cmax was subjected to a mixed-effects model with treatment (dose level), day (day 1 or 7) and treatment-by-day interaction as fixed effects and subject as a random effect. The adjusted means obtained from the model, including differences for each comparison of interest and the associated 90% CIs, was back-transformed on the log scale to obtain adjusted geometric means, adjusted geometric mean ratios (GMRs) and 90% CIs of the ratio. The GMRs and 90% CIs were provided for each treatment and overall, i.e., day 7/day 1. In the FES, formal statistical analysis was performed on the PK parameters Cmax, AUC0-last and AUC0-24 to assess the effects of food on anle138b. The PK parameters underwent a natural logarithmic transformation and were analysed using a mixed-effect model with terms for treatment (i.e., prandial state), period and sequence as fixed effects and subject nested within sequence as a random effect. Adjusted GMRs and 90% CIs for the adjusted GMRs for the comparison between fed and fasted states were provided where the ratios are defined as fed/fasted.
structure (smiles),measurement,setting,value
"Brc1cccc(-c2cc(-c3ccc4c(c3)OCO4)n[nH]2)c1 [anle138b, 3-(1,3-benzodioxol-5-yl)-5-(3-bromophenyl)-1H-pyrazole]",safety and tolerability (in words),"[1]; food effect study, 150 mg, fasted and fed conditions",safe and well tolerated
same,serious adverse events (in words),"[1]; healthy subjects, any part of the study",no serious adverse events
same,safety and tolerability (in words),"[1]; healthy subjects, up to 300 mg daily for up to 7 consecutive days",safe and well tolerated at all dose levels
same,effect of food on Cmax (in words),"[2]; 150 mg single dose, fed vs fasted",decreased by about half
same,AUC(0-t),"[2]; human, plasma, oral, 150 mg single dose, fasted, read-out: AUC0-24 range",433 to 2720 ng·h/mL
same,Cmax,"[2]; human, plasma, oral, 150 mg single dose, fasted, read-out: Cmax range",225 to 1420 ng/mL
same,AUC(0-t),"[2]; human, plasma, oral, 150 mg single dose, fed, read-out: AUC0-24 range",378 to 1920 ng·h/mL
same,Cmax,"[2]; human, plasma, oral, 150 mg single dose, fed, read-out: Cmax range",110 to 479 ng/mL
same,bioavailability,"[2]; human, plasma, oral, 150 mg single dose, 90% CI: 61%, 84%, read-out: dose bioavailable in the fed state compared to the fasted state",~74%
same,AUC(0-t),"[2]; human, plasma, po, healthy volunteers, single oral 150 mg, fasted, read-out: AUC(0-24) (geometric mean)",~896 ng·h/mL
same,AUC(0-t),"[2]; human, plasma, po, healthy volunteers, single oral 150 mg, fasted, read-out: AUC(0-last) (geometric mean)",888 ng·h/mL
same,Cmax,"[2]; human, plasma, po, healthy volunteers, single oral 150 mg, fasted, read-out: Cmax (geometric mean)",~442 ng/mL
same,half-life,"[2]; human, plasma, po, healthy volunteers, single oral 150 mg, fasted",678 min
same,Tmax,"[2]; human, plasma, po, healthy volunteers, single oral 150 mg, fasted, read-out: Tmax (median)",1.25 h
same,Tmax,"[2]; human, plasma, po, healthy volunteers, single oral 150 mg, fasted, read-out: Tmax (range)",1 to 2 h
same,Tmax,"[2]; human, plasma, po, healthy volunteers, single oral 150 mg, fed (high-fat breakfast), read-out: Tmax (median)",3 h
same,Tmax,"[2]; human, plasma, po, healthy volunteers, single oral 150 mg, fed (high-fat breakfast), read-out: Tmax (range)",1.5 to 3 h
same,AUC(0-t),"[2]; human, plasma, po, healthy volunteers, single oral 150 mg, fed, read-out: AUC(0-24) (geometric mean)",~641 ng·h/mL
same,AUC(0-t),"[2]; human, plasma, po, healthy volunteers, single oral 150 mg, fed, read-out: AUC(0-last) (geometric mean)",668 ng·h/mL
same,Cmax,"[2]; human, plasma, po, healthy volunteers, single oral 150 mg, fed, read-out: Cmax (geometric mean)",~196 ng/mL
same,half-life,"[2]; human, plasma, po, healthy volunteers, single oral 150 mg, fed",912 min
same,ratio of fasted AUC(0-24) to fed AUC(0-24),"[2]; single dose, healthy subject",less than 1.5
